Where a SMILES comes first, the peptide text is derived from it.
System: PAI-1
Test: Western blot of PAI-1 secretion, UACC-903 cells
Assay type: cell-based, human
Settings: cyclopeptide 5 to 20 μM
Experimental: FIG. 15: Effect of YSNSG (SEQ ID NO: 3) cyclopeptide on secretion of PAI-1 (plasminogen activator inhibitor-1). The secretion of PAI-1 was analyzed by Western Blot (A) in a medium conditioned by UACC-903 cells control in the absence of peptide (negative control, white bar), in cells treated with linear heptapeptide CNYYSNS (SEQ ID NO: 5) (20 μM) (positive control, black bar) or treated with YSNSG (SEQ ID NO: 3) cyclopeptide at a concentration from 5 μM to 20 μM (grey bars). The conditioned medium was recovered, concentrated and analyzed as described in the methods.
The samples underwent 10% polyacrylamide gel electrophoresis in the presence of 0.1% SDS then were transferred onto Immobilon-P membranes (Millipore, St Quentin en Yvelines, France). The membranes were saturated with 5% freeze dried skimmed milk, Tween 20 0.1% in a 50 mM Tris-HCl, 150 mM NaCl buffer, pH 7.5 (TBS) for 2 hours at ambient temperature. The membranes were then incubated overnight at 4° C. with anti-MMP-14, anti-PAI-1 and anti-u-PAR antibodies then incubated for one hour at ambient temperature with a secondary antibody (anti-IgG) conjugated with peroxidase. The immune complexes were visualized with an ECL chemoluminescence detection kit.

With `NC(=O)CC1NC(=O)C(CO)NC(=O)C(Cc2ccc(O)cc2)NC(=O)CNC(=O)C(CO)NC1=O` (stereo not shown) [cyclopeptide YSNSG, cyclopeptide YSNSG (SEQ ID NO: 3)] (cyclo(GYSNS); configuration not given here) as the compound, how does the “secretion of PAI-1” value read?
The value was “large increase”.

— patent publication US20090305955A1, “Cyclopeptide with Anti-Cancer Activity Derived from Collagen Type IV” (priority 2006, published 2009)
